The test system of test [1] is H1 human embryonic stem cells. Description: Single-cell monolayer assay with EGF/FGF4, serum free, no activin A (Example 10, Table 10). The test is classed as cell-based. Particulars: No AA (without Wnt3a); FGF(100 ng/ml); EGF(100 ng/ml).
In test [2] the test system is H1 human embryonic stem cells. The experiment in a line: Bioassay validation: activin A titration with or without Wnt3a, cell number and SOX17 intensity (Example 2). The test is classed as cell-based. Particulars: with 20 ng/ml Wnt3a days 1-2, four-day assay. The text has this: Activin A is an important mediator of differentiation in a broad range of cell types, including differentiation of embryonic stem cells to definitive endoderm. […] A bioassay that measures this differentiation in human embryonic stem cells was adapted in miniaturized format to 96-well plates for screening purposes. Validation was completed using treatment with commercial sources of activin A and Wnt3a recombinant proteins and measuring protein expression of the transcription factor SOX17, considered to be a representative marker of definitive endoderm.
Briefly, clusters of H1 human embryonic stem cells were grown on reduced growth factor […]™ (Invitrogen; Cat #356231)-coated tissue culture plastic. Cells were passaged using collagenase (Invitrogen; Cat #17104-019) treatment and gentle scraping, washed to remove residual enzyme, and plated in a ratio of 1:1 (surface area) on reduced growth factor […]™-coated 96-well black plates (Packard ViewPlates; Perkin Elmer; Cat #6005182). […]
Imaging was performed using an IN Cell Analyzer 1000 (GE Healthcare) utilizing the 51008bs dichroic for cells stained with Hoechst 33342 and Alexa Fluor 488. […] Segmentation for the nuclei was determined based on gray-scale levels (baseline range 100-300) and nuclear size. […]

For the molecule `O=C1CCN2CCN(CC2)Cc2cc(Cl)cc(c2)Nc2ncnc(n2)-c2cncc(c2)CCCN1` [Compound 34, 5-Chloro-1,8,10,12,16,22,26,32-octaazapentacyclo[24.2.2.1˜3.7˜0.1˜9,13˜0.1˜14.18˜]tritriaconta-3(33), 4,6,9(32), 10,12,14(31), 15,17-nonaen-23-one], the “Sox17 Expression, Average Total Intensity” value in test [1] is on record as 1.13E+08. Take “Activin A: recombinant human activin A (PeproTech), TGF-beta family member”: in test [2], the “EC50 for induction of SOX17 expression” value was 0.03 to 0.05 µg/mL and the “Optimal activin A effects for induction of SOX17 expression (concentration range)” value was 100 to 200 ng/mL.

The record behind these values is patent publication US9593305B2, “Differentiation of pluripotent stem cells” (Janssen Biotech, Inc., priority 2008, dated 2017).
